# Assay results published in PubChem BioAssay (NCI).
# Several values for one entry are separate records, joined by “and”; a condition that tells them apart may be missing. Equal values may be shown once.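 Growth conditions: 96-well plates. Treatment: test compound, 48 hours, 5 concentrations. Analysis: linear interpolation between bracketing concentrations; unreached endpoints set to highest concentration. GI50 = concentration required for 50% inhibition of growth. At the TGI there is no net growth.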 *1 amine or outer side, *2 acyl side, *3 side chain or, on linkers, in order; H or OH if unused. Where a SMILES comes first, the peptide text is derived from it. Bridges are numbered along the chain shown (N, C = ends). Roman numbers before positions name the chains, in order. [ ]: non-standard residue; d: D form. Actinocin(9to1) = Cc1c2oc3c(C)ccc(C(=O)[*:1])c3nc-2c(C(=O)[*:2])c(N)c1=O; NMeF = CN[CH](Cc1ccccc1)C(=O)O; Sar = CNCC(=O)O
# Tests used:
# Experiment in all cases: inhibition of tumour cell growth, NCI panel, 48 h
# HL-60(TB) leukemia = tested on: HL-60(TB) leukemia
# SR leukemia = tested on: SR leukemia
# OVCAR-8 ovarian = tested on: OVCAR-8 ovarian
# SF-539 CNS = tested on: SF-539 CNS
# K-562 leukemia = tested on: K-562 leukemia
# UO-31 renal = tested on: UO-31 renal
# MDA-MB-435 = tested on: MDA-MB-435
# HS 578T breast = tested on: HS 578T breast
# LXFL 529 NSCLC = tested on: LXFL 529 NSCLC
# KM20L2 colon = tested on: KM20L2 colon
SMILES,GI50 (HL-60(TB) leukemia) [µM],TGI (HL-60(TB) leukemia) [µM],GI50 (SR leukemia) [µM],TGI (SR leukemia) [µM],GI50 (OVCAR-8 ovarian) [µM],TGI (OVCAR-8 ovarian),GI50 (SF-539 CNS) [µM],TGI (SF-539 CNS),GI50 (K-562 leukemia) [µM],TGI (K-562 leukemia) [µM],GI50 (UO-31 renal),TGI (UO-31 renal) [µM],GI50 (MDA-MB-435) [µM],TGI (MDA-MB-435),GI50 (HS 578T breast) [µM],TGI (HS 578T breast),TGI (LXFL 529 NSCLC) [µM],TGI (KM20L2 colon) [µM],GI50 (LXFL 529 NSCLC) [µM],GI50 (KM20L2 colon) [µM]
Cc1cc(Nc2cc(N)ncn2)c(=O)n2c1C(=O)NC21CCCCC1,> 100,> 100,> 100,> 100,> 100,> 100 µM,94.6,> 100 µM,> 100,> 100,51.8 µM,> 100,> 100,> 100 µM,54.3,> 100 µM,,,,
Cc1c([N+](=O)[O-])oc2ccc3ccccc3c12,,> 100,,> 100,,> 100 µM,,> 100 µM,,> 100,,> 100,,> 100 µM,,> 100 µM,,,,
O=C(/C=C\c1ccccc1)N1CCc2ccccc2C1,,83.6,,69.1,,> 100 µM,,> 100 µM,,45.8,,> 100,,84.1 µM,,> 100 µM,,,,
NC(=S)NN=C1CSSC1,0.516,6.81,2.79,> 100,2.94,23.4 µM,2.75,7.38 µM,27,> 100,1.83 µM,20.1,5.79,44.7 µM,3.49,40 µM,,,,
Cc1ccc([C@]2(C)CC[C@H](C)/C2=C\Br)c(O)c1,3.47,12.6,2.87,11.5,5.88,21.9 µM,1.85,4.17 µM,3.3,11.1,6.37 µM,20.3,1.86,4.82 µM,2.95,15.7 µM,,,,
O=C(NC(=S)Nc1cc(Cl)ccc1O)c1cccc(Br)c1,7.12,> 100,7.34,> 100,6.54,> 100 µM,7.58,35.8 µM,4.94,> 100,6.12 µM,56.3,13.9,> 100 µM,6.85,41 µM,,,,
Cc1cccc2c(O)cc(=O)oc12,,> 100,,> 100,,> 100 µM,,> 100 µM,,> 100,,> 100,,,,,> 100,> 100,,
Cc1cc(I)cc(CN(C)CCCN2CCN(C)CC2)c1O,27.1,> 57.9,20.1,> 55.1,80.8,> 100 µM,16,33 µM,14.6,40.1,37.5 µM,> 100,14.4,31.4 µM,23.6,> 68.1 µM,,,,
CC1(C)CC(N(C(=O)/C=C/c2ccc([N+](=O)[O-])o2)C2CCCCC2)CC(C)(C)N1,,6.4,,21.2,,17.8 µM,,21.8 µM,,,,24.5,,,,,17.8,18.8,,
"Cc1c2oc3c(C)ccc(C(=O)NC4C(=O)NC(C(C)C)C(=O)N5CCCC5C(=O)N(C)CC(=O)N(C)C(Cc5ccccc5)C(=O)OC4C)c3nc-2c(C(=O)NC2C(=O)NC(C(C)C)C(=O)N3CCCC3C(=O)N(C)CC(=O)N(C)C(Cc3ccccc3)C(=O)OC2C)c(N)c1=O (stereo not drawn) (I: TVP[Sar][NMeF] / II: TVP[Sar][NMeF]; ester I:1-I:C, II:1-II:C; linker I:N-II:N via Actinocin(9to1); configuration not given here)",0.00285,0.0205,0.000199,,,0.132 µM and 0.054 µM,,< 0.01 µM and 0.0439 µM,0.00115,,< 0.01 µM and 0.0968 µM,,,< 0.01 µM and 0.095 µM,,< 0.01 µM and 0.0685 µM,,,,
O=C(CC/C(CC(=O)c1ccc(Br)cc1)=N\O)Nc1ccc(Cl)c(Cl)c1,,> 100,,> 100,,> 100 µM,,> 100 µM,,> 100,,> 100,,,,,> 100,> 100,,
Cn1c(=O)c2/c(n(C)c1=O)=N\C=c1\c(=O)n(C)c(=O)n(C)\c1=N\C=2,,> 100,,,,> 100 µM,,> 100 µM,,> 100,,> 100,,,,,> 100,> 100,,
O=C(O)c1cc2ccccc2c2c1C(=O)c1ccccc1-2,,> 100,,> 100,,> 100 µM,,> 100 µM,,> 100,,> 100,,> 100 µM,,> 100 µM,,,,
CC(=O)[CH-]C(C)=O.CC(=O)[CH-]C(C)=O.CC[O-].CC[O-].[Ti+4],> 100,> 100,,,> 100,> 100 µM,> 100,> 100 µM,> 100,> 100,> 100 µM,> 100,,,,,> 100,,> 100,
COc1ccc(Cn2cc3c(c2-c2cc(OC)c(OC)c(OC)c2)CCc2cnoc2-3)cc1,0.204,0.647,0.175,1.42,0.485,> 100 µM,0.283,2.39 µM,0.111,> 32.3,0.542 µM,> 100,0.0404,0.208 µM,0.238,0.805 µM,,,,
CN(C)CCCn1c(-c2nonc2N)nc2cnccc21,> 25,> 25,> 25,> 25,> 25,> 25 µM,> 25,> 25 µM,> 25,> 25,> 11.2 µM,> 25,> 25,> 25 µM,19.1,> 25 µM,,,,
OCCN1CCN(CC/C=C2/c3ccccc3Sc3ccc(Cl)cc32)CC1,,16,,34.3,15.2,29.1 µM,,25.7 µM,,8.65,,27.3,,,,,17.9,5.4,,
CC(=O)[O-].O=C([CH-]C(=O)c1ccccc1)c1ccccc1.O=C([CH-]C(=O)c1ccccc1)c1ccccc1.[Sm+3],1.66,7.08,,,2.13,16.3 µM,14.6,45.2 µM,3.68,27.4,3.79 µM,12.5,,,,,,36.5,,7.33
